This passage reports IC50 results from ChEMBL document CHEMBL5725273, “Thienopyranones as kinase and epigenetic inhibitors” (2016).

Some results are limits rather than exact numbers.

Test [1] has as its target T1, Phosphatidylinositol 4,5-bisphosphate 3-kinase catalytic subunit delta isoform (Homo sapiens, UniProt O00329).
T1 sequence (O00329 whole entry): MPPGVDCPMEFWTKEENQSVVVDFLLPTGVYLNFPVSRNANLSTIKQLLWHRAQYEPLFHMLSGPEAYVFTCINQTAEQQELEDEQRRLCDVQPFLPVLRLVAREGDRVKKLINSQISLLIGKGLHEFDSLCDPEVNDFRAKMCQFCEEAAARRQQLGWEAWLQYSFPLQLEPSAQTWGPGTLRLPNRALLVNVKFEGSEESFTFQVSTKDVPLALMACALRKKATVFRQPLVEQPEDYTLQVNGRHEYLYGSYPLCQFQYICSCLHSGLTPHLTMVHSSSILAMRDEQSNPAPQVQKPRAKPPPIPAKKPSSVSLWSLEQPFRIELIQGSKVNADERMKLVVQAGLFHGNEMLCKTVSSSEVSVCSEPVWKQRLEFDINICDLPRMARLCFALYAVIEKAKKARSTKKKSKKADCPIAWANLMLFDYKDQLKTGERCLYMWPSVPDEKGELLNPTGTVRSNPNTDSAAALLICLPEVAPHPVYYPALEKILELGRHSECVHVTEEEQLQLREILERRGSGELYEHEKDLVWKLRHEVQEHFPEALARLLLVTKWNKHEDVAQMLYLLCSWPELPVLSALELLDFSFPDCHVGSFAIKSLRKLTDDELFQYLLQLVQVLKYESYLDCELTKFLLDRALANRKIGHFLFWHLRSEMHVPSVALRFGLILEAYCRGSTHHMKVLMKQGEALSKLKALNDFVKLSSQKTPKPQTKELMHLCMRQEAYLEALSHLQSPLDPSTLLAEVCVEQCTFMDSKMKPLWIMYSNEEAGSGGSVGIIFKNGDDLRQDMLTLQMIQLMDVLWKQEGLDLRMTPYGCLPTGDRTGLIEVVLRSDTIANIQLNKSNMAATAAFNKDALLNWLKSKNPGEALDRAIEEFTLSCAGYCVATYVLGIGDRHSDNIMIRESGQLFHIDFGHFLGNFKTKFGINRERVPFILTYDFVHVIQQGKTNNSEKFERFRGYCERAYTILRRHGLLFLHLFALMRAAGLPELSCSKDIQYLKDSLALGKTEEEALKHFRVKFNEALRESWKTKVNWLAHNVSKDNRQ
Briefly: (§1) Inhibition Assay: Several TP Scaffold compounds were tested for inhibition activity against isoforms of PI3K (alpha, beta, gamma, and delta isoforms) and the bromodomain protein BRD4 at regions 1 (BRD4-1) and 2 (BRD4-2).

Test [2] has as its target Bromodomain-containing protein 4 (Homo sapiens, UniProt O60885). Described as §1.
Test [3] deals with Phosphatidylinositol 4,5-bisphosphate 3-kinase catalytic subunit gamma isoform (Homo sapiens, UniProt P48736). The description is as §1.
Phosphatidylinositol 4,5-bisphosphate 3-kinase catalytic subunit gamma isoform, sequence (P48736 whole entry, canonical isoform): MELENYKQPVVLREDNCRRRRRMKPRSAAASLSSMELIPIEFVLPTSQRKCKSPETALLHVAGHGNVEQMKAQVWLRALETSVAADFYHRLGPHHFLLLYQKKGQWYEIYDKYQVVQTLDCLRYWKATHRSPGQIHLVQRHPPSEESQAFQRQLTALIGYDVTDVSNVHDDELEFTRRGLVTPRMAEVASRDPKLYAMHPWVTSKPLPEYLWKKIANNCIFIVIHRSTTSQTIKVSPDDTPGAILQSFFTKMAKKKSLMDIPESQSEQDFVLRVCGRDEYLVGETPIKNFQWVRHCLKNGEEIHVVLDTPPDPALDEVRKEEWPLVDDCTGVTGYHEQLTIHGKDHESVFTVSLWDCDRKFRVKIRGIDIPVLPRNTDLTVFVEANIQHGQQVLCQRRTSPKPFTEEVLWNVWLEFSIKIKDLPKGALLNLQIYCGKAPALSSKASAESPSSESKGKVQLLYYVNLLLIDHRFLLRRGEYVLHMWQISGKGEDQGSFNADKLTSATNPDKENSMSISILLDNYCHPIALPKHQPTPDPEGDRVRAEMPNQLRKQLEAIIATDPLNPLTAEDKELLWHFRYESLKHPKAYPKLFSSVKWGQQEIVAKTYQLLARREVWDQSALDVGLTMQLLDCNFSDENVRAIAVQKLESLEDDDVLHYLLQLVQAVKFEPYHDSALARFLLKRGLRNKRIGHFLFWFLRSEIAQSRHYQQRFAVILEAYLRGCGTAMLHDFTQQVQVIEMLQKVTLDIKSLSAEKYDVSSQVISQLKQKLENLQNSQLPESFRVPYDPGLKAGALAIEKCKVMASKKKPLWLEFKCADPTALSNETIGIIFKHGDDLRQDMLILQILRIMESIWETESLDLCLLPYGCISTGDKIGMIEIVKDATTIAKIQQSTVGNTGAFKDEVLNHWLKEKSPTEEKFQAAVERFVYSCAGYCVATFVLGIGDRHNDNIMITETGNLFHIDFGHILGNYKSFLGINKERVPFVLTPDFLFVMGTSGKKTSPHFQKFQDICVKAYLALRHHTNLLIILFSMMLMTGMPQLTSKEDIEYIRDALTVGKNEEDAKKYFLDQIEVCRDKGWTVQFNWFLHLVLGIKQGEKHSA
Test [4] concerns the target Phosphatidylinositol 4,5-bisphosphate 3-kinase catalytic subunit alpha isoform (Homo sapiens, UniProt P42336). Described as §1.

Phosphatidylinositol 4,5-bisphosphate 3-kinase catalytic subunit alpha isoform, sequence (P42336 whole entry, canonical isoform): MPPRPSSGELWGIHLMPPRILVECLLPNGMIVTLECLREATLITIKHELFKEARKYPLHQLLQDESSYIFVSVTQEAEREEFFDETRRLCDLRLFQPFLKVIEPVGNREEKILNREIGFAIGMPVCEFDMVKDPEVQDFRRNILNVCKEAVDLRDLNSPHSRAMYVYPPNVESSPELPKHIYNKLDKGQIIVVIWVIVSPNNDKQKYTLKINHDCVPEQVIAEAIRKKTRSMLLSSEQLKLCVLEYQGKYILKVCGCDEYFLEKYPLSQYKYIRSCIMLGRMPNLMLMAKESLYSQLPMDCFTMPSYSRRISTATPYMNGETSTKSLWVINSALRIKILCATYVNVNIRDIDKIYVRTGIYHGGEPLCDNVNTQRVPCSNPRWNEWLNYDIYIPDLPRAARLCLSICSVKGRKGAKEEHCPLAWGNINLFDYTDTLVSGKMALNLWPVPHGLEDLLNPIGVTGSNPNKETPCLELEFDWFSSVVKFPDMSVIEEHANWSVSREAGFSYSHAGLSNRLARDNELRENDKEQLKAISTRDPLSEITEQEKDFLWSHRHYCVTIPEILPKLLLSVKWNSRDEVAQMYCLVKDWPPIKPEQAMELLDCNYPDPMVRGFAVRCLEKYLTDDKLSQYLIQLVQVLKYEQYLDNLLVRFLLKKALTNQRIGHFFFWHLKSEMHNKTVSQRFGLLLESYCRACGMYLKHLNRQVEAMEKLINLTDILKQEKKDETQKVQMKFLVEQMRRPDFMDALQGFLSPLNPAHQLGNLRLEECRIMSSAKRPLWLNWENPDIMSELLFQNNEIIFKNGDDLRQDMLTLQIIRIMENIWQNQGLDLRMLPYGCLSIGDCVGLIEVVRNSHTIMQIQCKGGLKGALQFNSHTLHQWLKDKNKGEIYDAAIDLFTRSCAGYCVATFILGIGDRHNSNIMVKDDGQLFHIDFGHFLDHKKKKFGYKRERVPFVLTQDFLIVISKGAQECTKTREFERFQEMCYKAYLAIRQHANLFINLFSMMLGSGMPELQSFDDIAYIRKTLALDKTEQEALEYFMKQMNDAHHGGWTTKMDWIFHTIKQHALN

As to `CCOC(=O)c1ccc(-c2csc3c(=O)cc(N4CCSCC4)oc23)cc1`, the IC50 in test [1] is 2490 nM; in test [2], 1010 nM; in test [3], over 50000 nM; in test [4], 29100 nM.
